Experimental data as given in PubChem BioAssay (NCI).
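How tested: cells in 96-well plates exposed to compound for 48 hours at five concentrations. The concentration for 50% growth inhibition is given as GI50. TGI: total growth inhibition.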

Experiments:
Experiment in all cases: NCI-60 cell line screen, 48 h
M19-MEL melanoma = system: M19-MEL melanoma
HL-60(TB) leukemia = system: HL-60(TB) leukemia
COLO 205 colon = system: COLO 205 colon
SK-MEL-28 melanoma = system: SK-MEL-28 melanoma
SF-539 CNS = system: SF-539 CNS
DMS 114 small cell lung = system: DMS 114 small cell lung
DMS 273 small cell lung = system: DMS 273 small cell lung
RXF 393 renal = system: RXF 393 renal
KM20L2 colon = system: KM20L2 colon
HOP-92 NSCLC = system: HOP-92 NSCLC
DLD-1 colon = system: DLD-1 colon
BT-549 breast = system: BT-549 breast

| Compound | TGI (M19-MEL melanoma) [µM] | TGI (HL-60(TB) leukemia) [µM] | TGI (COLO 205 colon) [µM] | TGI (SK-MEL-28 melanoma) [µM] | TGI (SF-539 CNS) [µM] | TGI (DMS 114 small cell lung) [µM] | TGI (DMS 273 small cell lung) [µM] | TGI (RXF 393 renal) [µM] | TGI (KM20L2 colon) [µM] | TGI (HOP-92 NSCLC) [µM] | TGI (DLD-1 colon) [µM] | TGI (BT-549 breast) [µM] | GI50 (M19-MEL melanoma) [µM] |
| --- | --- | --- | --- | --- | --- | --- | --- | --- | --- | --- | --- | --- | --- |
| COC(=O)C1C(=O)O[C@@H](c2ccc(OC)cc2OC)C1C(=O)OC (stereo not given in full) | > 100 | > 100 | > 100 | > 100 | > 100 | > 100 | > 100 | > 100 | > 100 | > 100 | > 100 | – | – |
| O=C(CC(=O)C(F)(F)F)c1csc2ccccc12 | > 100 | – | > 100 | > 100 | > 100 | > 100 | > 100 | – | > 100 | – | – | – | – |
| CNC1C(O)CC(OC2C/C=C(\C)C/C(C)=C/C=C/CCC(C)CNC(=O)/C=C/C=C/C2C)OC1C (stereo not given) | 1.68 | 0.37 | 0.679 | 2.97 | 3.14 | 0.402 | – | 2.43 | – | 2.11 | 1.45 | 2.58 | – |
| CSC(=S)NNC(=O)c1ccncc1 | 35.8 | 39.9 | > 100 | 44 | 48.9 | 28.6 | 46.1 | 31.8 | > 100 | 60.8 | 34.6 | – | – |
| Cc1cc(C)n(-c2c(O)ccc(O)c2-n2nc(C)cc2C)n1 | > 100 | > 100 | > 100 | > 100 | > 100 | > 100 | > 100 | > 100 | > 100 | > 100 | > 100 | – | – |
| CC1OC(O)CC(OC(=O)c2ccccc2)C1OC(=O)c1ccccc1 (stereo not given) | 31.6 | 36 | 80.9 | 29.6 | 31.7 | – | 29.5 | 39.3 | > 100 | 35 | 28.4 | – | – |
| CCC(=C(c1ccc(OCc2ccccc2)cc1)c1ccc(OCc2ccccc2)cc1)c1ccc(OC)cc1 | > 100 | > 100 | > 100 | > 100 | > 100 | > 100 | > 100 | > 100 | > 100 | > 100 | > 100 | – | – |
| COC(=O)C1=CC2OC1(C)C1(CC1)C2=O (stereo not given) | 51.7 | 16.1 | 33.5 | – | 32.1 | – | – | 28.9 | 36.6 | – | 37.3 | – | – |
| CC(=O)Nc1ccc(/C=C/C(=O)c2sc(C(N)=S)nc2C)cc1 | > 100 | > 100 | > 100 | > 100 | > 100 | > 100 | > 100 | > 100 | > 100 | > 100 | > 100 | – | – |
| Cc1ccc(C2=NO[C@@H]3C(=O)N(c4ccc(Cc5ccc(N6C(=O)[C@H]7C(c8ccc(C)cc8)=NO[C@H]7C6=O)cc5)cc4)C(=O)[C@H]23)cc1 | > 100 | > 100 | > 100 | > 100 | > 100 | > 100 | > 100 | > 100 | > 100 | > 100 | > 100 | – | – |
| O=C(C=Nc1ccccc1C(=O)[O-])c1cccs1.O=C(C=Nc1ccccc1C(=O)[O-])c1cccs1.[Cu+2] | > 100 | > 100 | > 100 | > 100 | – | – | – | – | > 100 | > 100 | > 10 | – | 39.7 |
| CC1C2=CC=C(O2)C(C)(C)C2=CC=C(O2)C(C)(C)C2=CC=C(O2)C(C)(C)C2=CC=C1O2 | > 100 | > 100 | > 100 | > 100 | > 100 | – | > 100 | > 100 | > 100 | > 100 | – | – | – |
| CCCCCCCCCC(=O)OCC1OC(n2cc(F)c(=O)[nH]c2=O)C(N)C(OC(=O)CCCCCCCCC)C1O (stereo not given) | 31.2 | 55.1 | 31.2 | 30.4 | 33.7 | 29.6 | 38 | 31.9 | 34.8 | 37 | – | – | – |
| Nc1nc(N)c(-c2ccc(Cl)cc2)c(CCC(=O)Nc2cccc(C(F)(F)F)c2)n1 | – | > 100 | > 100 | > 100 | > 100 | > 100 | > 100 | > 100 | > 100 | – | > 100 | – | – |
| Cc1ccc2[nH]c(=O)c(C(C#N)c3ccccc3)nc2c1 (stereo not given) | – | – | 54.8 | > 100 | > 100 | – | > 100 | 78.8 | 92.3 | 93.8 | > 100 | – | – |
| CN=S(=O)(C[C@]1(O)CC2OC1C1OC(C)(C)OC21)c1ccccc1 (stereo not given in full) | > 100 | > 100 | > 100 | > 100 | > 100 | > 100 | > 100 | > 100 | > 100 | > 100 | – | – | – |

| Compound | TGI (M19-MEL melanoma) [µM] | TGI (HL-60(TB) leukemia) [µM] | TGI (COLO 205 colon) [µM] | TGI (SK-MEL-28 melanoma) [µM] | TGI (SF-539 CNS) [µM] | TGI (DMS 114 small cell lung) [µM] | TGI (DMS 273 small cell lung) [µM] | TGI (RXF 393 renal) [µM] | TGI (KM20L2 colon) [µM] | TGI (HOP-92 NSCLC) [µM] | TGI (DLD-1 colon) [µM] | TGI (BT-549 breast) [µM] | GI50 (M19-MEL melanoma) [µM] |
| --- | --- | --- | --- | --- | --- | --- | --- | --- | --- | --- | --- | --- | --- |
| C=CCN(N=O)C(=O)N(CCC)CCCCC(NC(C)=O)C(=O)NCc1ccccc1 (stereo not given) | > 100 | 54.4 | > 100 | > 100 | > 100 | > 100 | > 100 | > 100 | > 100 | > 100 | – | – | – |
| CCOC(=O)C1=C(C)N(NC(=O)c2ccccc2)C2(O)CCCC12C(=O)OCC (stereo not given) | > 100 | > 100 | – | > 100 | > 100 | > 100 | > 100 | > 100 | > 100 | – | – | – | – |
| CCOC(=O)/C=C1\Nc2ccccc2-n2nnnc21 | > 100 | > 100 | > 100 | > 100 | > 100 | > 100 | 93.5 | > 100 | > 100 | > 100 | > 100 | – | – |
| COc1ccc2c(c1)[n+]([O-])c(-c1nc3ccccc3s1)c(N)[n+]2[O-] | > 100 | > 100 | > 100 | > 100 | > 100 | – | > 100 | – | > 100 | > 100 | > 100 | – | – |
| Cc1ccc(S(=O)(=O)N/N=C(\C(=O)Nc2cccc([N+](=O)[O-])c2)c2nc3ccc([N+](=O)[O-])cc3[nH]c2=O)cc1 | > 100 | – | > 100 | > 100 | > 100 | 99.1 | – | > 100 | – | > 100 | > 100 | – | – |
| Cn1c2cccc3nnc4cccc(c4c32)n1C | > 100 | > 100 | > 100 | > 100 | > 100 | > 100 | > 100 | > 100 | > 100 | > 100 | > 100 | – | – |
| Cc1c(CCl)c(=O)oc2c(C)c3occ(CCl)c(=O)c3cc12 | 30.3 | 20.2 | 32.9 | 35.4 | 44.9 | 41.8 | – | 30.9 | > 100 | – | – | – | – |
| O=C(CC1(O)C(=O)Nc2c(Cl)cc(Cl)cc21)c1ccc2ccccc2c1 (stereo not given) | 16.3 | 14.6 | 21.6 | 24.3 | 21 | 17.8 | 15.2 | 20.9 | 11.4 | 36.2 | 26.7 | – | – |
| CCN(CC)c1ccc2c(c1)N=C1N=CC=CN1C2(c1ccc(N(C)C)cc1)c1ccc(N(C)C)cc1 | 19.3 | 3.3 | 6.53 | 26 | 28.6 | – | > 100 | 23.2 | 10.2 | 8.6 | 17.9 | – | – |
| O=C(O)/C(Cl)=C(\Cl)C(=O)Nc1ccccc1 | > 100 | – | > 100 | > 100 | > 100 | – | > 100 | > 100 | > 100 | > 100 | > 100 | – | – |
| CC12CC3CC(C)(C1)CC(N=[N+]=[N-])(C3)C2 | > 100 | – | > 100 | > 100 | > 100 | > 100 | > 100 | – | – | > 100 | > 100 | – | – |
| O=C(NCC#CCO)C(F)(F)F | – | – | – | > 100 | > 100 | > 100 | > 100 | > 100 | – | – | > 100 | – | – |
| Cc1c(Cl)ccc2c1NC(=O)C2(O)C1Cc2ccccc2C1=O (stereo not given) | > 100 | 65.4 | > 100 | > 100 | > 100 | > 100 | – | > 100 | > 100 | > 100 | > 100 | – | – |
| COc1ccccc1NC(=O)C1=C(C)NC(C)=C(C(=O)Nc2ccccc2OC)C1c1ccccc1OC | > 100 | > 100 | > 100 | > 100 | > 100 | > 100 | > 100 | – | > 100 | > 100 | > 100 | – | – |
| CC1C(=O)N(C)C2(CO)C(=O)O[C@H](C)C12O (stereo not given in full) | > 100 | – | > 100 | > 100 | > 100 | > 100 | – | > 100 | – | – | > 100 | – | – |
